Assays:
HCT116 = experiment: Long term proliferation assay (15 days); assay type: cell-based; settings: Homo sapiens, HCT-116, 360 h, read-out: EZM2302 IC50 (absolute, long term proliferation); HCT116, LARGE, day 15
Method: (§1) Long term (14–15 day) cell proliferation assays were performed using the method previously described with adjustments to initial seeding densities depending on growth characteristics for each cell line[54],[55]. For 6 day proliferation studies, see Supplementary Methods.
(§2) Supplementary Table S2. Long term proliferation IC50 values of cell lines dosed with EZM2302. A panel of cell lines was treated with EZM2302fo r 15 da ys in a long term proliferation assa y. Abs olute IC 50 values were calculated in GraphPad Pri sm (non -linear regression anal ysis, top of the curves were fixed to 100%) for each line at d ay 15 .

LNCAP = experiment: Long term proliferation assay (15 days); assay type: cell-based; settings: Homo sapiens, 360 h, read-out: EZM2302 IC50 (absolute, long term proliferation), PROSTATE, day 15
Method: as §1, §2

HT29 = experiment: Long term proliferation assay (15 days); assay type: cell-based; settings: Homo sapiens, HT-29, 360 h, read-out: EZM2302 IC50 (absolute, long term proliferation); HT29, LARGE, day 15
Method: as §1, §2

PC3 = experiment: Long term proliferation assay (15 days); assay type: cell-based; settings: Homo sapiens, PC-3, 360 h, read-out: EZM2302 IC50 (absolute, long term proliferation); PC3, PROSTATE, day 15
Method: as §1, §2

MCF7 = experiment: Long term proliferation assay (15 days); assay type: cell-based; settings: Homo sapiens, 360 h, read-out: EZM2302 IC50 (absolute, long term proliferation); MCF7, BREAST, day 15
Method: as §1, §2

BT20 = experiment: Long term proliferation assay (15 days); assay type: cell-based; settings: Homo sapiens, BT-20, 360 h, read-out: EZM2302 IC50 (absolute, long term proliferation); BT20, BREAST, day 15
Method: as §1, §2

BT474 = experiment: Long term proliferation assay (15 days); assay type: cell-based; settings: Homo sapiens, BT-474, 360 h, read-out: EZM2302 IC50 (absolute, long term proliferation); BT474, BREAST, day 15
Method: as §1, §2

VCAP = experiment: Long term proliferation assay (15 days); assay type: cell-based; settings: Homo sapiens, 360 h, read-out: EZM2302 IC50 (absolute, long term proliferation), PROSTATE, day 15
Method: as §1, §2

hERG channel = hERG channel (Homo sapiens, UniProt Q12809); experiment: hERG channel current inhibition; assay type: biochemical; settings: read-out: IC50 against hERG channel current inhibition
hERG channel, sequence (Q12809 whole entry): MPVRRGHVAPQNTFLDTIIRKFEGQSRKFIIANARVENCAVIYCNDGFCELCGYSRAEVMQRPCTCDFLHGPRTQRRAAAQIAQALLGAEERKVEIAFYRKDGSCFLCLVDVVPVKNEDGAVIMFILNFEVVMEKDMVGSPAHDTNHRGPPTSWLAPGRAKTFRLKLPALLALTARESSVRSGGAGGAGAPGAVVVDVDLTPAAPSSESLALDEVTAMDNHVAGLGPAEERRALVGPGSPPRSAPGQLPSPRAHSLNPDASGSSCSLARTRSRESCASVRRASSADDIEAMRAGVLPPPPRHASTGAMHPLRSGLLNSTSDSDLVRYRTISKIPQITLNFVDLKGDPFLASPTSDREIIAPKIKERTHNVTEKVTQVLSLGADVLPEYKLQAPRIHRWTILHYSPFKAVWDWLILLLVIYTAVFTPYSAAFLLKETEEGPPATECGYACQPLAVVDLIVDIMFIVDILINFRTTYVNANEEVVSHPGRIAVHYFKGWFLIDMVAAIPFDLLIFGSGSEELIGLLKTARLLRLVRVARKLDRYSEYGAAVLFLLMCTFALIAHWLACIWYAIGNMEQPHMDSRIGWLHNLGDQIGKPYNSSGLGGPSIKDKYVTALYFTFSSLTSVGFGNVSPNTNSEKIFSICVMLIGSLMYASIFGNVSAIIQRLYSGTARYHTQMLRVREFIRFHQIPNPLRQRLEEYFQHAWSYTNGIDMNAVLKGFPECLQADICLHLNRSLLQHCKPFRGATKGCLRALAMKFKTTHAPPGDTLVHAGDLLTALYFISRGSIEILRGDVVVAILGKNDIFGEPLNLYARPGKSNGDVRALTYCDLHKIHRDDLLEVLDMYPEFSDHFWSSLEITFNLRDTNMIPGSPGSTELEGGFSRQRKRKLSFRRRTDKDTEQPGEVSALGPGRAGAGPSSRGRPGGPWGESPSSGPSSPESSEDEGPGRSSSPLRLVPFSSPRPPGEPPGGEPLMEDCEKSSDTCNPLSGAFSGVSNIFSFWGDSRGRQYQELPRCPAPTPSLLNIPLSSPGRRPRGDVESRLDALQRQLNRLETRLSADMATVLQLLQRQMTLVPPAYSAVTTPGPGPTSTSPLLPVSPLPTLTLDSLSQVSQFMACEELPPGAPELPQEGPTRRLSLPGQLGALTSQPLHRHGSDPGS

[1] = Plasma protein binding (equilibrium dialysis), mouse plasma; assay type: in vitro ADME, CD-1 mouse; settings: male, CD-1, pH 7.4
Method: (§3) Hepatocyte stability, plasma protein binding and cytochrome P450 assays were performed using standard procedures. Details can be found in Supplementary Methods. […]
reaction. Plates were incubated at 37°C and 50 µL aliquots were removed from the incubation mixture at 0, 10, 20, 40, 60 and 90 min and added to 2 volumes of methanol containing metoprolol (internal standard) to stop the reaction. Negative control incubations with inactivated cell l ysat e were incubat ed for 90 min. Positive controls were verapamil and umbelliferone. The termination plates were centrifuged at 2,500 rpm for 20 min at 4°C to precipitate the protein prior to LC -MS/MS analysis. In vitro h alf -life (t½) value was det ermined b y plotting the natural logarithm of the anal yte/ IS peak area ratios as a function of time, with the slope of the linear regression (k; - gradient) converted to in vitro t ½ v alue wher e t ½=0.693/k. […]
Plasma protein binding was assessed b y equilibrium dial ysis, utilizing the HT-dial ysis cell format with a cellulose semi- permeable membran e (molecular wei ght cut-off of 5000 Da).
(pH 7.4) and 100% mixed gender pooled human, pooled male CD -1 mouse or Sprague-Dawle y rat plasma. […] Samples were quantified using standard curves prepared in the equivalent matrix. The fraction unbound in plas ma (fu) was calculated us ing the followin g equ ation: […]

CYP3A4 = target: T1, CYP3A4 (Homo sapiens, UniProt P08684); experiment: Cytochrome P450 inhibition; assay type: in vitro ADME; settings: human liver microsomes, tested up to 25 µM
T1 construct: with human liver microsomes; from tissue; host or cells: human liver microsomes
T1 sequence (P08684 whole entry): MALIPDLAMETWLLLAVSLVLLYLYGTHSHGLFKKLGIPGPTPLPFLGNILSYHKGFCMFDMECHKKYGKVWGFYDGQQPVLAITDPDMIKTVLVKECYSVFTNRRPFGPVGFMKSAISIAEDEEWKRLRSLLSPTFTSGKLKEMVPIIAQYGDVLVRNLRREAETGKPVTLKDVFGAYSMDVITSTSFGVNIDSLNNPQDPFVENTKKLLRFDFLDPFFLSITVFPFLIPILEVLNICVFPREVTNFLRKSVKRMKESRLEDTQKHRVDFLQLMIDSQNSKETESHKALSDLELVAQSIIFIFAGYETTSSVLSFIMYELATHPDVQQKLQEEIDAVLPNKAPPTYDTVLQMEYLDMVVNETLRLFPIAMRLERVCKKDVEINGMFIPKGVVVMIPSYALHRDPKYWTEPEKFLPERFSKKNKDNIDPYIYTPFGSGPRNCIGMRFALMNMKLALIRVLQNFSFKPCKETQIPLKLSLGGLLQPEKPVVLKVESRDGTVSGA
Method: as §3
(§4) Cytochrome P450 Inhibition (IC50 Determination) […]
(§5) with human liver microsomes (0.1 to 1 mg/m L) and NADPH (1 mM) in the presence of specific probe substrates at 37°C. Probe substrates and incubation times were: phenacetin (30 µM, 5 min), tolbutamide (120 µM, 60 min), mephenytoi n (25 µM, 60 min) and dextromethorphan (5 µM, 5 min) for CYP1A2, CYP2C9, CYP2C19 and CYP2D6, respectivel y. For CYP3A4, midazolam (2.5 µM, 5 min) andtestosterone (50 µM, 5 min) were used as probe substrates. […]
(§6) isoform. All reactions were terminated b y addition of methanol prior to cent rifugation and addition of internal standard to the supernatants. For CYP2C9, CYP2C19, CYP2D6 and CYP3A4 (midazolam) incubations, the supernat ants were combined for the simultaneous anal ysis o f 4-h ydrox ytol butamide, 4- hydrox ymephenytoin, dextrorphan and 1-hydrox ymidazolam b y LC-MS/MS. For the CYP1A2 and CYP3A4 (testosterone) incubations, the supernatants were anal yzed individuall y for acetaminophen and 6ß-h ydrox ytestosterone b y LC -MS/MS. A decrease i n the formation of the metabolites compared to vehicle control was used to calculate an IC50 value.

CYP2C19 = target: T2, CYP2C19 (Homo sapiens, UniProt P33261); experiment: Cytochrome P450 inhibition; assay type: in vitro ADME; settings: human liver microsomes, tested up to 25 µM
T2 construct: with human liver microsomes; from tissue; host or cells: human liver microsomes
T2 sequence (P33261 whole entry): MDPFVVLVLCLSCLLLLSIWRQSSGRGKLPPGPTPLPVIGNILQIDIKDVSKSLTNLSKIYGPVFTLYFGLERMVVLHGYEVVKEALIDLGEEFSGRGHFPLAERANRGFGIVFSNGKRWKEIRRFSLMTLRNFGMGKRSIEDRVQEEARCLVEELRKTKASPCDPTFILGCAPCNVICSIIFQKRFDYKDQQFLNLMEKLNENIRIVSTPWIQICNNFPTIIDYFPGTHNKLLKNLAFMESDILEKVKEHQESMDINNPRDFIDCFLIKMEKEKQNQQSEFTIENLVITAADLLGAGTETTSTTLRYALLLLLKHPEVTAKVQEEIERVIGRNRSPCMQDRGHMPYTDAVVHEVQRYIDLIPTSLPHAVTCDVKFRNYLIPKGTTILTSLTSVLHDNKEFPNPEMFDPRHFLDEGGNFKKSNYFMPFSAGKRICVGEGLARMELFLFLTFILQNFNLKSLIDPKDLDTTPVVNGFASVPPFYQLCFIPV
Method: as §3, §4, §5, §6

CYP1A2 = target: T3, CYP1A2 (Homo sapiens, UniProt P05177); experiment: Cytochrome P450 inhibition; assay type: in vitro ADME; settings: human liver microsomes, tested up to 25 µM
T3 construct: with human liver microsomes; from tissue; host or cells: human liver microsomes
T3 sequence (P05177 whole entry): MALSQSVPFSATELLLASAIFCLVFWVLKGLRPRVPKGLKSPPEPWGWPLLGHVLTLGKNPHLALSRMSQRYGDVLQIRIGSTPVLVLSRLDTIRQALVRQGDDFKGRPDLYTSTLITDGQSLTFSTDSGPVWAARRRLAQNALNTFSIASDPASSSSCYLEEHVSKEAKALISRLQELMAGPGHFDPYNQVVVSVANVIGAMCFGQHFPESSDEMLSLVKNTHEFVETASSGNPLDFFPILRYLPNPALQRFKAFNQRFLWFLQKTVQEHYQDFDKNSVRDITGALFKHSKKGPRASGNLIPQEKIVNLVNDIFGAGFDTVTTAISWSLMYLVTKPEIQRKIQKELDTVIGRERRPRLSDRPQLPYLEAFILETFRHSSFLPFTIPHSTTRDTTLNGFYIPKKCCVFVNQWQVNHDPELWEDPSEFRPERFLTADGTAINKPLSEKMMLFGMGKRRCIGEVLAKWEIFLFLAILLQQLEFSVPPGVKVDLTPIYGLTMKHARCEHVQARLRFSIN
Method: as §3, §4, §5, §6

CYP2D6 = target: T4, CYP2D6 (Homo sapiens, UniProt P10635); experiment: Cytochrome P450 inhibition; assay type: in vitro ADME; settings: human liver microsomes, tested up to 25 µM
T4 construct: with human liver microsomes; from tissue; host or cells: human liver microsomes
T4 sequence (P10635 whole entry): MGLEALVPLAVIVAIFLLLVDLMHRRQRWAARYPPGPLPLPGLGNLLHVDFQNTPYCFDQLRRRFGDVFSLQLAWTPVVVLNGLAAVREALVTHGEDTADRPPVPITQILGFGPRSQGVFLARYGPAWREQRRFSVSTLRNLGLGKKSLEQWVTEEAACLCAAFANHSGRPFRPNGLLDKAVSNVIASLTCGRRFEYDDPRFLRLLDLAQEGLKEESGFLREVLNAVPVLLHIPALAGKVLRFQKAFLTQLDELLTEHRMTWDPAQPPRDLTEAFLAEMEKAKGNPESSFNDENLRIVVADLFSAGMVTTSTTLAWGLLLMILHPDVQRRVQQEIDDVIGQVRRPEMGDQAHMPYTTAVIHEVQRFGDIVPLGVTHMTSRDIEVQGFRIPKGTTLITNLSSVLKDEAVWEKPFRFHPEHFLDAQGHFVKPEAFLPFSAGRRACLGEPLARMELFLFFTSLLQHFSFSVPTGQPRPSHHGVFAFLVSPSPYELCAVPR
Method: as §3, §4, §5, §6

CYP2C9 = target: T5, CYP2C9 (Homo sapiens, UniProt P11712); experiment: Cytochrome P450 inhibition; assay type: in vitro ADME; settings: human liver microsomes, tested up to 25 µM
T5 construct: with human liver microsomes; from tissue; host or cells: human liver microsomes
T5 sequence (P11712 whole entry): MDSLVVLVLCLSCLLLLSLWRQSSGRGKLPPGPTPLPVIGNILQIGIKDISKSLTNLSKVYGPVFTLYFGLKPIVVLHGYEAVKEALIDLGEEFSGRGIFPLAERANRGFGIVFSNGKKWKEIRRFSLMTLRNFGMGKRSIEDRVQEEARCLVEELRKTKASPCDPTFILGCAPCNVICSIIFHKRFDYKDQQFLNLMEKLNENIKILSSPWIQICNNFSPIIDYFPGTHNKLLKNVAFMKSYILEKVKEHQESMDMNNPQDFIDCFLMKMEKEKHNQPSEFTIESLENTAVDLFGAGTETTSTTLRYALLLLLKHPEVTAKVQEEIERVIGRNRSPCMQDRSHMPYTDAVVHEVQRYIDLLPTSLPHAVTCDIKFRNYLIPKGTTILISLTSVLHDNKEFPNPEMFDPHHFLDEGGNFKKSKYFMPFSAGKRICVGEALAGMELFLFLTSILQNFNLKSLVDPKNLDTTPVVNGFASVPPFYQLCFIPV
Method: as §3, §4, §5, §6

SMILES: CNC[C@@H](O)COc1ccc(Cl)c(-c2nc(-c3c(C)noc3C)c(C)c(N3CC4(CCN(C(=O)OC)CC4)C3)n2)c1 [EZM2302]
- IC50 (HCT116): > 20 µM
- IC50 (LNCAP): 12.2 µM
- IC50 (HT29): > 20 µM
- IC50 (PC3): > 20 µM
- IC50 (MCF7): > 20 µM
- IC50 (BT20): > 20 µM
- IC50 (BT474): > 20 µM
- IC50 (VCAP): > 20 µM
- IC50 (hERG channel): > 100 µM
- fraction unbound at 16 h, 5 µM [1]: 0.46
- CYP3A4 inhibition (CYP3A4): did not inhibit
- CYP2C19 inhibition (CYP2C19): did not inhibit
- CYP1A2 inhibition (CYP1A2): did not inhibit
- CYP2D6 inhibition (CYP2D6): did not inhibit
- CYP2C9 inhibition (CYP2C9): did not inhibit

— article PMC5740082, “Identification of a CARM1 Inhibitor with Potent In Vitro and In Vivo Activity in Preclinical Models of Multiple Myeloma” (Scientific Reports, 2017)
